11 molecules from ChEMBL document CHEMBL1201862, “PubChem BioAssay data set” (2004) can be followed below.

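48-hour exposure; five concentrations; linearly interpolated endpoints. The concentration for 50% growth inhibition is given as GI50.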 Calls of active or inactive are those of the source. Cut-off read from the data, not from the text of the source: active = GI50 up to about 1.1 µM and inactive = higher.

Among the test systems are RPMI-8226; SNB-78; KM12; UACC-257; DLD-1; Malme-3M; SK-MEL-2; SNB-75; OVCAR-5; COLO 205; 786-0; EKVX; CAKI-1; LOX IMVI; SF-539; ACHN; NCI-H23; NCI-H226.
Assay in all cases: growth of human tumour cells (NCI), 48 h

As to `Cc1ccc(C)c(NC(=O)CCC(=O)CC(=O)C(C)(C)C)c1`, the GI50 with RPMI-8226, with SNB-78, in the experiment with KM12, in the experiment on UACC-257, in the experiment on DLD-1 and with Malme-3M was > 100 µM (inactive) in each case. Besides, the GI50 in the experiment on SK-MEL-2, with SNB-75, in the experiment with OVCAR-5, with COLO 205, in the experiment on 786-0 and with EKVX was > 100 µM (inactive) in each case. Besides, the GI50 in the experiment with CAKI-1, in the experiment with LOX IMVI, in the experiment on SF-539, in the experiment on ACHN and in the experiment with NCI-H23 was > 100 µM (inactive) each time.
With `COC(=O)N/N=C(\C)C(CN1CCCCC1)C(C1=C(O)c2ccccc2OC1)c1ccccc1` (stereo not drawn), the GI50 in the experiment with RPMI-8226, with SNB-78, in the experiment with KM12, in the experiment with UACC-257, in the experiment on DLD-1 and with Malme-3M was > 100 µM (inactive) in each case. Also, the GI50 in the experiment with SK-MEL-2 is > 100 µM (inactive); in the experiment on SNB-75, 95.7 µM (inactive); with OVCAR-5, > 100 µM (inactive); in the experiment with COLO 205, > 100 µM (inactive); in the experiment on 786-0, > 100 µM (inactive); in the experiment on NCI-H226 it was > 100 µM (inactive). Also, the GI50 with EKVX, in the experiment on CAKI-1, in the experiment with LOX IMVI, in the experiment on SF-539, with ACHN and with NCI-H23 was > 100 µM (inactive) in each case.
Regarding `O=C1[C@@H]2C(c3ccncc3)=NO[C@@H]2C(=O)N1c1ccc(Cc2ccc(N3C(=O)[C@H]4C(c5ccncc5)=NO[C@H]4C3=O)cc2)cc1`, the GI50 was > 100 µM (inactive) in the experiment with RPMI-8226; > 100 µM (inactive) in the experiment with SNB-78; > 100 µM (inactive) in the experiment on KM12; > 100 µM (inactive) with UACC-257; > 100 µM (inactive) in the experiment on DLD-1; 99.1 µM (inactive) in the experiment with Malme-3M. For the same molecule, the GI50 in the experiment with SK-MEL-2 was > 100 µM (inactive); in the experiment with SNB-75 it was > 100 µM (inactive); in the experiment on OVCAR-5 it was > 100 µM (inactive); in the experiment with COLO 205, > 100 µM (inactive); in the experiment on 786-0, > 100 µM (inactive); in the experiment on NCI-H226, 73.8 µM (inactive). In addition, the GI50 with EKVX, in the experiment with CAKI-1, in the experiment on LOX IMVI, in the experiment with SF-539, with ACHN and in the experiment on NCI-H23 was > 100 µM (inactive) in each case.
Consider `CC(O)C(N/C=C1/N=C(c2ccccc2)OC1=O)C(=O)O` (stereo not drawn), for which the GI50 with RPMI-8226, in the experiment on SNB-78, in the experiment on KM12, in the experiment with UACC-257, in the experiment on DLD-1 and in the experiment on Malme-3M was > 100 µM (inactive) throughout. Also, the GI50 with SK-MEL-2, with SNB-75, with OVCAR-5, in the experiment on COLO 205, in the experiment on 786-0 and with NCI-H226 was > 100 µM (inactive) each time. The GI50 in the experiment with EKVX, in the experiment with CAKI-1, with LOX IMVI, in the experiment with SF-539, with ACHN and in the experiment on NCI-H23 was > 100 µM (inactive) each time.
As for `O=[N+]([O-])c1cccnc1S(=O)(=O)c1ccccc1`, the GI50 with RPMI-8226 is 8.71 µM (inactive); in the experiment on SNB-78, 11.2 µM (inactive); with KM12, 19.6 µM (inactive); in the experiment with UACC-257, 17.4 µM (inactive); with DLD-1, 2.49 µM (inactive); in the experiment with Malme-3M, 11.1 µM (inactive). For the same molecule, the GI50 in the experiment with SK-MEL-2 was 16.2 µM (inactive); in the experiment with SNB-75, 19.9 µM (inactive); in the experiment with OVCAR-5, 15.8 µM (inactive); with COLO 205, 5.97 µM (inactive); in the experiment with 786-0 it was 2.48 µM (inactive); in the experiment with NCI-H226, 15.8 µM (inactive). Besides, the GI50 was 6.4 µM (inactive) with EKVX; 2.9 µM (inactive) in the experiment on CAKI-1; 4.46 µM (inactive) in the experiment on LOX IMVI; 11.3 µM (inactive) with SF-539; 4.83 µM (inactive) with ACHN; 15.8 µM (inactive) in the experiment on NCI-H23.
As to `O=C1OC(c2ccccc2)=N/C1=C\c1ccc2ccccc2c1`, the GI50 in the experiment on RPMI-8226, in the experiment on SNB-78, with KM12, with UACC-257, in the experiment on DLD-1 and in the experiment on Malme-3M was > 100 µM (inactive) throughout. The GI50 with SK-MEL-2, with SNB-75, with OVCAR-5, in the experiment on COLO 205, in the experiment with 786-0 and with EKVX was > 100 µM (inactive) throughout. The GI50 in the experiment with CAKI-1, in the experiment with LOX IMVI, in the experiment with SF-539, with ACHN and in the experiment with NCI-H23 was > 100 µM (inactive) in each case.
For `O=[N+]([O-])C=C(c1ccc(Cl)cc1)c1ccc(Cl)cc1`, the GI50 with RPMI-8226 was 11.2 µM (inactive); with SNB-78, 18.2 µM (inactive); in the experiment with KM12 it was 14.6 µM (inactive); with UACC-257 it was 20.8 µM (inactive); in the experiment with DLD-1, 13.9 µM (inactive); in the experiment with SK-MEL-2 it was 29.2 µM (inactive). Besides, the GI50 in the experiment on SNB-75 was 21.7 µM (inactive); in the experiment with OVCAR-5 it was 14.5 µM (inactive); in the experiment with COLO 205 it was 3.85 µM (inactive); in the experiment with 786-0, 16.5 µM (inactive); with NCI-H226, 16.7 µM (inactive); with EKVX it was 17.5 µM (inactive). The GI50 was 16.6 µM (inactive) with CAKI-1; 12.7 µM (inactive) with LOX IMVI; 17 µM (inactive) with SF-539; 16.7 µM (inactive) with ACHN; 9.68 µM (inactive) with NCI-H23.
In the case of `C/C(=C\CNc1ncnc2c1ncn2C1CCCCO1)COP(=O)(O)O` (stereo not drawn), the GI50 in the experiment with RPMI-8226, in the experiment on SNB-78, with KM12, with UACC-257, in the experiment with DLD-1 and in the experiment on Malme-3M was > 100 µM (inactive) throughout. The GI50 in the experiment on SK-MEL-2, with SNB-75, with OVCAR-5, in the experiment with COLO 205, with 786-0 and in the experiment with NCI-H226 was > 100 µM (inactive) in each case. For the same molecule, the GI50 with EKVX, with CAKI-1, with LOX IMVI, in the experiment on SF-539, in the experiment on ACHN and in the experiment on NCI-H23 was > 100 µM (inactive) throughout.
For `O=S(=O)(C1=CC(S(=O)(=O)c2ccccc2)CN(Cc2ccccc2)C1c1cccc2ccccc12)c1ccccc1` (stereo not drawn), the GI50 in the experiment on RPMI-8226, in the experiment with SNB-78, in the experiment on KM12, in the experiment on UACC-257, in the experiment with DLD-1 and in the experiment on Malme-3M was > 69 µM (inactive) each time. Besides, the GI50 in the experiment on SK-MEL-2 was > 69 µM (inactive); in the experiment with SNB-75 it was > 69 µM (inactive); in the experiment on OVCAR-5, > 69 µM (inactive); in the experiment with 786-0 it was > 69 µM (inactive); with NCI-H226, 14.6 µM (inactive); with EKVX, > 69 µM (inactive). Besides, the GI50 with CAKI-1 was 20.7 µM (inactive); with LOX IMVI, > 69 µM (inactive); with SF-539, > 69 µM (inactive); with ACHN, > 69 µM (inactive); in the experiment with NCI-H23, > 69 µM (inactive).
`O=C(Nc1ccn(CCI)c(=O)n1)c1ccccc1`: the GI50 with RPMI-8226, with SNB-78, in the experiment with KM12, with UACC-257, in the experiment on DLD-1 and in the experiment with Malme-3M was > 100 µM (inactive) throughout. Moreover, the GI50 in the experiment with SK-MEL-2, in the experiment on SNB-75, with OVCAR-5, in the experiment with COLO 205, in the experiment with 786-0 and in the experiment on NCI-H226 was > 100 µM (inactive) throughout. Also, the GI50 in the experiment with EKVX, in the experiment with CAKI-1, in the experiment with LOX IMVI, with SF-539 and in the experiment on ACHN was > 100 µM (inactive) each time.
As for `C[n+]1c2ccccc2cc2c(CNC(CCCNC(=N)N)C(=O)O)cccc21` (stereo not drawn), the GI50 was 0.0682 µM (active) in the experiment with RPMI-8226; 2.31 µM (inactive) in the experiment with SNB-78; 0.448 µM (active) in the experiment with KM12; 0.638 µM (active) in the experiment on UACC-257; 0.351 µM (active) in the experiment on DLD-1; 2.05 µM (inactive) in the experiment with Malme-3M. Besides, the GI50 in the experiment on SK-MEL-2 was 4.03 µM (inactive); with SNB-75, 5.62 µM (inactive); with OVCAR-5 it was 4.5 µM (inactive); with COLO 205, 0.248 µM (active); with 786-0, 0.75 µM (active); in the experiment with NCI-H226 it was 3.05 µM (inactive). In addition, the GI50 was 4.66 µM (inactive) in the experiment on EKVX; 0.518 µM (active) in the experiment with CAKI-1; 0.493 µM (active) in the experiment with LOX IMVI; 1.23 µM (inactive) with SF-539; 0.594 µM (active) in the experiment with ACHN; 3.14 µM (inactive) in the experiment with NCI-H23.
